From US12486254B2, “Uracil derivatives for stimulating read-through of premature termination codons” (Southern Research Institute, priority 2022, dated 2025)

system: W134X-CF#14 FRT; experiment: Read-through of a premature termination codon, W134X-CF#14 FRT data, with G418; type: cell-based; conditions: in presence of G418
Experimental: (§1) The compounds shown in Table 1 were evaluated for their ability to stimulate read-through of a premature termination codon, and their respective activities are shown in Tables 2 and 3 below.

| EC50 | Structure (SMILES) |
| --- | --- |
| 174 µM | CCn1c(=O)c(C(=O)CNC2CCCCC2)c(N)n(Cc2ccccc2)c1=O [1.13] |
| 43.2 µM | CC(C)N(CC(N)=O)CC(=O)c1c(N)n(Cc2ccccc2)c(=O)n(C)c1=O [1.21] |
| 155 µM | CCn1c(=O)c(C(=O)CN(CCNC(=O)OC(C)(C)C)C(C)C)c(N)n(Cc2ccccc2)c1=O [1.26] |
| 72.3 µM | CCn1c(=O)c(C(=O)CN(CC(N)=O)C(C)(C)C)c(N)n(Cc2ccccc2)c1=O [1.32] |
| 53 µM | CCn1c(=O)c(C(=O)CN2CCC[C@@H]2C(N)=O)c(N)n(Cc2ccccc2)c1=O [1.34] |
| 12.9 µM | CCN(CC(=O)c1c(N)n(Cc2ccccc2)c(=O)n(CC)c1=O)CC(=O)c1c(N)n(Cc2ccccc2)c(=O)n(CC)c1=O [1.37] |
| 11.9 µM | CCn1c(=O)c(C(=O)CN(C)CC(=O)c2c(N)n(Cc3ccccc3)c(=O)n(CC)c2=O)c(N)n(Cc2ccccc2)c1=O [1.38] |
| 157 µM | CCn1c(=O)c(C(=O)CN(C)CC(N)=O)c(N)n(Cc2ccccc2)c1=O [1.41] |
| 49.3 µM | Cn1c(=O)c(C(=O)CN2CCN(c3ccccc3F)CC2)c(N)n(Cc2ccccc2)c1=O [1.43] |
| 22.7 µM | CC(C)n1c(=O)c(C(=O)CN2CCCCC2C(N)=O)c(N)n(Cc2ccccc2)c1=O (centres unmarked) [1.44] |
| ≥ 100 µM | NC(=O)C1CCCCN1CC(=O)c1c(N)n(Cc2ccccc2)c(=O)n(C2CC2)c1=O (centres unmarked) [1.45] |
| ≥ 100 µM | NC(=O)C1CCCCN1CC(=O)c1c(N)n(C2CC2)c(=O)n(Cc2ccccc2)c1=O (centres unmarked) [1.46] |
| 59.4 µM | CCn1c(=O)c(C(=O)CN2CCCC[C@H]2C(N)=O)c(N)n(Cc2ccccc2)c1=O [1.49] |
| ≥ 100 µM | CCn1c(=O)c(C(=O)CN2CCN(C(=O)OC(C)(C)C)CC2C(N)=O)c(N)n(Cc2ccccc2)c1=O (centres unmarked) [1.52] |
| 32.3 µM | CC1Cc2ccccc2N1CC(=O)c1c(N)n(Cc2ccccc2)c(=O)n(C)c1=O (centres unmarked) [1.61] |
| 79.9 µM | CCn1c(=O)c(C(=O)CN2CCCC2c2cccn2C)c(N)n(Cc2ccccc2)c1=O (centres unmarked) [1.63] |
| 19.7 µM | CCn1c(=O)c(C(=O)CN2CCCCC2C(=O)OC)c(N)n(Cc2ccccc2)c1=O (centres unmarked) [1.68] |
| 27.9 µM | CCn1c(=O)c(C(=O)CN2CCCCC2C(=O)NC(C)C)c(N)n(Cc2ccccc2)c1=O (centres unmarked) [1.70] |
| 70.4 µM | CCn1c(=O)c(C(=O)CN(C(C)C)C(C)C(N)=O)c(N)n(Cc2ccccc2)c1=O (centres unmarked) [1.71] |
| 28 µM | CC(C)Cn1c(=O)c(C(=O)CN2CCCCC2C(N)=O)c(N)n(Cc2ccccc2)c1=O (centres unmarked) [1.75] |
| 31.2 µM | CCN(CC(=O)c1c(N)n(Cc2ccccc2)c(=O)n(CC)c1=O)C(C(N)=O)C(C)C (centres unmarked) [1.77] |
| 49.3 µM | CCn1c(=O)c(C(=O)CN2CCCCC2C(=O)NC(C)(C)C)c(N)n(Cc2ccccc2)c1=O (centres unmarked) [1.79] |
| 3.89 µM | CCNC(=O)C1CCCCN1CC(=O)c1c(N)n(Cc2ccccc2)c(=O)n(CC)c1=O (centres unmarked) [1.80] |
| 3.92 µM | CCN(CC)C(=O)C1CCCCN1CC(=O)c1c(N)n(Cc2ccccc2)c(=O)n(CC)c1=O (centres unmarked) [1.81] |
| 48.2 µM | CCn1c(=O)c(C(=O)CN2CCCCC2C(N)=O)c(N)n(CC2CCCCC2)c1=O (centres unmarked) [1.84] |
| 28.1 µM | CCn1c(=O)c(C(=O)CN2CCCCC2C(=O)N2CCCC2)c(N)n(Cc2ccccc2)c1=O (centres unmarked) [1.85] |
| 53.8 µM | CCn1c(=O)c(C(=O)CN2CCCCC2C(=O)N(C(C)C)C(C)C)c(N)n(Cc2ccccc2)c1=O (centres unmarked) [1.88] |

| EC50 | Structure (SMILES) |
| --- | --- |
| 24.2 µM | NC(=O)C1CCCCN1CC(=O)c1c(N)n(Cc2ccccc2F)c(=O)n(Cc2ccccc2F)c1=O (centres unmarked) [1.92] |
| 21.1 µM | NC(=O)C1CCCCN1CC(=O)c1c(N)n(Cc2cccc(F)c2)c(=O)n(Cc2cccc(F)c2)c1=O (centres unmarked) [1.95] |
| 62.5 µM | CCn1c(=O)c(C(=O)CN2CCCCC2C(=O)Nc2ccccc2)c(N)n(Cc2ccccc2)c1=O (centres unmarked) [1.97] |
| 43.1 µM | CCn1c(=O)c(C(=O)CN2CCCC2C(=O)N(C)C)c(N)n(Cc2ccccc2)c1=O (centres unmarked) [1.98] |
| 28.3 µM | CCN(CC)C(=O)C1CCCN1CC(=O)c1c(N)n(Cc2ccccc2)c(=O)n(CC)c1=O (centres unmarked) [1.99] |
| 16.5 µM | CC(C)N(CC(N)=O)CC(=O)c1c(N)n(Cc2cccs2)c(=O)n(Cc2cccs2)c1=O [1.100] |
| 12.8 µM | NC(=O)C1CCCCN1CC(=O)c1c(N)n(Cc2cccs2)c(=O)n(Cc2cccs2)c1=O (centres unmarked) [1.101] |
| 6.2 µM | CN(C)C(=O)C1CCCCN1CC(=O)c1c(N)n(Cc2cccs2)c(=O)n(Cc2cccs2)c1=O (centres unmarked) [1.102] |
| 25 µM | Cc1ccccc1Cn1c(N)c(C(=O)CN2CCCCC2C(N)=O)c(=O)n(Cc2ccccc2C)c1=O (centres unmarked) [1.108] |
| 7.47 µM | Cc1cccc(Cn2c(N)c(C(=O)CN3CCCCC3C(N)=O)c(=O)n(Cc3cccc(C)c3)c2=O)c1 (centres unmarked) [1.109] |
| 25 µM | COc1ccccc1Cn1c(N)c(C(=O)CN2CCCCC2C(N)=O)c(=O)n(Cc2ccccc2OC)c1=O (centres unmarked) [1.110] |
| 5.19 µM | CCn1c(=O)c(C(=O)CN(CC(N)=O)C(C)C)c(N)n(Cc2cccs2)c1=O [1.111] |
| 18.1 µM | Cc1ccc(Cn2c(N)c(C(=O)CN3CCCCC3C(N)=O)c(=O)n(Cc3ccc(C)cc3)c2=O)cc1 (centres unmarked) [1.114] |
| 31.9 µM | COc1ccc(Cn2c(N)c(C(=O)CN3CCCCC3C(N)=O)c(=O)n(Cc3ccc(OC)cc3)c2=O)cc1 (centres unmarked) [1.115] |
| 23.9 µM | COc1cccc(Cn2c(N)c(C(=O)CN3CCCCC3C(N)=O)c(=O)n(Cc3cccc(OC)c3)c2=O)c1 (centres unmarked) [1.116] |
| 13.3 µM | CCn1c(=O)c(C(=O)CN2CCCCC2C(N)=O)c(N)n(Cc2cccc(C)c2)c1=O (centres unmarked) [1.119] |
| 61.3 µM | CCn1c(=O)c(C(=O)CN2CCCC2C(=O)N2CCOCC2)c(N)n(Cc2ccccc2)c1=O (centres unmarked) [1.121] |
| 30.4 µM | CCn1c(=O)c(C(=O)CN2CCCC2C(=O)N2CCCCC2)c(N)n(Cc2ccccc2)c1=O (centres unmarked) [1.122] |
| 24.1 µM | CCn1c(=O)c(C(=O)CN2CCCC2C(=O)NCc2ccccc2)c(N)n(Cc2ccccc2)c1=O (centres unmarked) [1.124] |
| 17.4 µM | CCn1c(=O)c(C(=O)CN2CCCCC2C(N)=O)c(N)n(Cc2cccc(F)c2)c1=O (centres unmarked) [1.134] |
| 13.5 µM | CCn1c(=O)c(C(=O)CN2CCCCC2C(=O)NCc2ccccc2C)c(N)n(Cc2ccccc2)c1=O (centres unmarked) [1.135] |
| 8.25 µM | CCn1c(=O)c(C(=O)CN2CCCCC2C(=O)NCCc2ccccc2)c(N)n(Cc2ccccc2)c1=O (centres unmarked) [1.136] |
| 5.08 µM | CCn1c(=O)c(C(=O)CN2CCCCC2C(N)=O)c(N)n(Cc2ccccc2F)c1=O (centres unmarked) [1.137] |
| 12.9 µM | CCn1c(=O)c(C(=O)CN2CCCCC2C(=O)N2CCc3ccccc3C2)c(N)n(Cc2ccccc2)c1=O (centres unmarked) [1.141] |
| 13.1 µM | CCn1c(=O)c(C(=O)CN2CCCC[C@@H]2C(=O)NCc2ccccc2F)c(N)n(Cc2ccccc2)c1=O [1.142] |
| 6.48 µM | CCn1c(=O)c(C(=O)CN2CCCC[C@@H]2C(=O)N2CCc3ccccc3C2)c(N)n(Cc2ccccc2)c1=O [1.143] |
| 9.35 µM | CCn1c(=O)c(C(=O)CN2CCCC[C@@H]2C(=O)NCc2cccc(F)c2)c(N)n(Cc2ccccc2)c1=O [1.144] |

| EC50 | Structure (SMILES) |
| --- | --- |
| 8.5 µM | CCn1c(=O)c(C(=O)CN2CCCCC2C(N)=O)c(N)n(Cc2ccc(F)cc2F)c1=O (centres unmarked) [1.146] |
| 52.5 µM | CCn1c(=O)c(C(=O)CN2CCCCC2C(N)=O)c(N)n(Cc2ccc(F)c(F)c2)c1=O (centres unmarked) [1.147] |
| 64.8 µM | CCn1c(=O)c(C(=O)CN(CC(N)=O)C(C)C)c(N)n(Cc2ccc(F)cc2C)c1=O [1.153] |
| 68.5 µM | CCn1c(=O)c(C(=O)CN2CCCCC2C(N)=O)c(N)n(Cc2ccc(F)cc2OC)c1=O (centres unmarked) [1.154] |
| 3.16 µM | CCn1c(=O)c(C(=O)CN2CCCC[C@@H]2C(=O)NCc2ccc(F)cc2)c(N)n(Cc2ccccc2)c1=O [1.155] |
| 11.4 µM | CCn1c(=O)c(C(=O)CN2CCCC[C@@H]2C(=O)NCC(C)C)c(N)n(Cc2ccccc2)c1=O [1.156] |
| 19.5 µM | CCn1c(=O)c(C(=O)CN2CCCC[C@@H]2C(=O)NCC(C)(C)C)c(N)n(Cc2ccccc2)c1=O [1.157] |
| 4.91 µM | CCn1c(=O)c(C(=O)CN2CCCC[C@@H]2C(=O)NCC(F)(F)F)c(N)n(Cc2ccccc2)c1=O [1.159] |
| 28.4 µM | NC(=O)C1CCCCN1CC(=O)c1c(N)n(CC2CCC2)c(=O)n(Cc2ccc(F)cc2)c1=O (centres unmarked) [1.160] |
| 13.9 µM | CCn1c(=O)c(C(=O)CN2CCCCC2C(N)=O)c(N)n(Cc2ccc(F)cc2C)c1=O (centres unmarked) [1.161] |
| 8.05 µM | CCn1c(=O)c(C(=O)CN2CCCCC2C(N)=O)c(N)n(Cc2ccc(F)c(C)c2)c1=O (centres unmarked) [1.163] |
| ≥ 100 µM | CCn1c(=O)c(C(=O)CN(CC(N)=O)C(C)C)c(N)n(Cc2ccc(F)c(OC)c2)c1=O [1.170] |
| 42.1 µM | CCn1c(=O)c(C(=O)CN2CCCCC2C(N)=O)c(N)n(Cc2ccc(F)cc2Cl)c1=O (centres unmarked) [1.173] |
| 21.2 µM | CCn1c(=O)c(C(=O)CN2CCCC[C@@H]2C(N)=O)c(N)n(Cc2ccc(C(F)(F)F)cc2)c1=O [1.178] |
| 10.1 µM | CCOc1ccc(C(C)NCC(=O)c2c(N)n(Cc3ccc(F)cc3)c(=O)n(CC)c2=O)cc1OCC (centres unmarked) [1.179] |
| 2.56 µM | CCn1c(=O)c(C(=O)CN2CCCC[C@@H]2C(=O)NCc2ccc(F)cc2)c(N)n(Cc2ccc(F)cc2)c1=O [1.189] |
| 47.2 µM | CCn1c(=O)c(C(=O)CN2CCCCC2)c(N)n(Cc2ccc(F)cc2)c1=O [1.193] |
| 3.91 µM | CCn1c(=O)c(C(=O)CN2CCCC[C@@H]2C(=O)NCC(F)(F)F)c(N)n(Cc2ccc(F)cc2)c1=O [1.197] |
| 9.5 µM | CC[C@H]1CCCCN1CC(=O)c1c(N)n(Cc2ccc(F)cc2)c(=O)n(CC)c1=O [1.199] |
| 34.9 µM | CCn1c(=O)c(C(=O)CN2CCCCC2C)c(N)n(Cc2ccc(F)cc2)c1=O (centres unmarked) [1.200] |
| 5.51 µM | CCC(C)C1CCCCN1CC(=O)c1c(N)n(Cc2ccc(F)cc2)c(=O)n(CC)c1=O (centres unmarked) [1.202] |
| 12.5 µM | CCn1c(=O)c(C(=O)CN(CCC(N)=O)C(C)C)c(N)n(Cc2ccc(F)cc2)c1=O [1.204] |
| 11.4 µM | CCn1c(=O)c(C(=O)CNc2cccc(C(N)=O)c2)c(N)n(Cc2ccc(F)cc2)c1=O [1.208] |
| 6.68 µM | CCn1c(=O)c(C(=O)CN2CCCCC2C2CCC2)c(N)n(Cc2ccc(F)cc2)c1=O (centres unmarked) [1.210] |
| 10.2 µM | CCn1c(=O)c(C(=O)CN(CC(=O)OC)C(C)C)c(N)n(Cc2ccc(F)cc2)c1=O [1.213] |

system: G542X#10-HBE5x5; experiment: Read-through of a premature termination codon, G542X#10-HBE5x5 (Table 3); type: cell-based; conditions: with G418
Experimental: as §1

| EC50 | Structure (SMILES) |
| --- | --- |
| ≥ 100 µM | CCn1c(=O)c(C(=O)CN(CC(N)=O)C(C)C)c(N)n(Cc2ccccc2)c1=O [1.1] |
